In patent US11771086B2, “Pest control composition including novel iminopyridine derivative” (priority 2012, dated 2023):

Key:
rice blast = assay type: in vivo; details: single agent 0.5 ppm; foliar application; fourteen days after inoculation
Rhizoctonia solani = experiment: Test Example 12 Test of control of rice sheath blight (Rhizoctonia solani); assay type: in vivo; details: single agent 5 ppm; foliar spray; six days after inoculation
Laodelphax striatellus = experiment: Test Example 14 Test with Laodelphax striatellus by soil irrigation treatment (mixture with paddy herbicide); assay type: in vivo; details: single agent 0.05 mg/seedling, five days after release
Method: After standing for three days, second instar larvae were released thereto. […] The test was performed in duplicate.

[1] = tested on: Nilaparvata lugens susceptible species (highly susceptible to imidacloprid); experiment: Reference Test Example 19 Pest control test of Nilaparvata lugens, imidacloprid susceptible species (soil drench); assay type: in vivo; details: for Insecticidal effects against Nilaparvata lugens (death rate %), Susceptible population: soil drench, six days
Method: (§1) Three days after the treatment, ten second instar larvae of Nilaparvata lugens, which had been collected outdoors and proliferated indoors, were each released to the rice seedling. […] Test in duplicate.
(§2) Furthermore, for comparison, the test against a species of Nilaparvata lugens which is highly susceptible to imidacloprid was performed by the same method as described above, and the results thereof are shown in Table 45. […] Meanwhile, the death rates of imidacloprid at 0.05 mg/seedling were (susceptible species) 100%, (resistant population I) 38% and (resistant population II) 69%, and the insecticidal effect thereof was also low even at a high dose. From the above results, it became obvious that Compound P212 and Compound 1-20 have high insecticidal effects even against Nilaparvata lugens resistance against imidacloprid.
(§3) Further, for the origin of test pests, bugs collected outdoors from the Kumamoto prefecture (I) in 2007 and from the Fukuoka prefecture (II) in 2005 as resistant population of Nilaparvata lugens, and bugs collected from the Kagoshima prefecture and then successively reared indoors for a long time as the imidacloprid susceptible population of Nilaparvata lugens were used.

[2] = tested on: Nilaparvata lugens resistant population I; experiment: Reference Test Example 19 Pest control test of Nilaparvata lugens, resistant population I (soil drench); assay type: in vivo
Method: as §1, §2, §3

[3] = tested on: Nilaparvata lugens resistant population II; experiment: Reference Test Example 19 Pest control test of Nilaparvata lugens, resistant population II (soil drench); assay type: in vivo; details: for Insecticidal effects against Nilaparvata lugens (death rate %), Resistant population II: soil drench, six days
Method: as §1, §2, §3

Laodelphax striatella = experiment: whole plant or invertebrate; details: for mortality at 0.005 mg/seedling: read-out: Mortality of single agent against Laodelphax striatella, single agent 0.005 mg/Seedling; for Theoretical value by Colby's equation: Laodelphax striatella soil irrigation, single agent 0.5 mg/Seedling (other component 0); for Mortality of single agent against Laodelphax striatella: single agent 0.5 mg/Seedling
Method: After the rice seedling was left to stand for 3 days, second instar larvae were released thereto. Thereafter, the larvae were left to stand in a thermostatic chamber (16 hours of light period-8 hours of dark period) at 25° C. […] The test was performed in duplicate. Mortality of larvae (%)={number of dead larvae/(number of survived larvae+number of dead larvae)}×100
B: 100−(mortality of larvae or adults when treated only with each of imidacloprid, fipronil, chlorantraniliprole, spinosad, clothianidin, dinotefuran, sulfoxaflor, pymetrozine, thiamethoxam, flupyradifurone and cycloxaprid))
(§4) Method for Judging Synergistic Effects
When the mortality against Laodelphax striatella in the case of a mixture with another agent exceeded the theoretical value by the Colby's equation, a synergistic effect was judged to be present.

[4] = tested on: Frankliniella occidentalis; experiment: whole plant or invertebrate
Method: After an air drying process, first instar larvae were released thereto. Thereafter, the larvae were left to stand in a thermostatic chamber (16 hours of light period-8 hours of dark period) at 25° C. […] The test was performed in duplicate. Mortality of larvae (%)={number of dead larvae/(number of survived larvae+number of dead larvae)}×100
(A: 100−(mortality of larvae or adults when treated only with Compound P212)
B: 100−(mortality of larvae or adults when treated with only the insecticide imidacloprid, dinotefuran, or acetamiprid))
as §4
When the mortality against Frankliniella occidentalis in the case of a mixture with another agent exceeded the theoretical value given by Colby's equation, a synergistic effect was judged to be present.

Callosobruchus chinensis = assay type: in vivo; details: single agent 0.2 ng/head; topical; one day
Method: A compound of Formula (I) and the insecticide indicated below, prepared in predetermined concentrations using acetone, were separately topically applied to the back of the same adult Callosobruchus chinensis. […] The test was performed in duplicate. Insect mortality (%)={number of dead insects/(number of survived insects+number of dead insects)}×100
(A: 100−(insect mortality for treatment with only Compound P212)
B: 100−(insect mortality for treatment with only the insecticide fipronil or imidacloprid))
as §4

[5] = tested on: Haemaphysalis longicornis; experiment: whole plant or invertebrate; assay type: in vivo; details: Haemaphysalis longicornis, topical, 120 h, read-out: Mortality of single agent against Haemaphysalis longicornis, single agent 1.9 μg; capsule on mouse; five days; mortality and agonal rate
Method: A capsule with a diameter of 2 cm and a height of 2 cm was attached to the dorsal surface of a mouse. A compound of Formula (I), ivermectin, moxidectin, permethrin, amitraz, fipronil, spinetram and the mixture of the compound of Formula (I) and each insecticide were dissolved in ethanol at the concentrations given in […], and each of these was dripped onto the surface of a mouse body within a capsule. After thorough drying, eight Haemaphysalis longicornis nymphs were released and the top of the capsule was sealed with a lid. The mouse was kept in a cage at 25° C. using a 12-hour light period and a 12-hour dark period. Five days after the release, the capsule was removed and the number of surviving and dead nymphs and the number of engorged individuals were counted and the insect mortality and agonal rate was calculated by the following equation. Insect mortality and agonal rate (%)={number of dead and agonal insects/(number of survived insects+number of dead and agonal insects)}×100

Plutella xylostella = experiment: whole plant or invertebrate; assay type: in vivo; details: for Theoretical value by Colby's equation: Plutella xylostella; for Mortality of single agent against Plutella xylostella: cabbage leaf disk spray, three days
Method: After an air drying process, second instar larvae were released thereto. […] The test was performed in duplicate.
as §4

Aphis gossypii = experiment: whole plant or invertebrate; assay type: in vivo
Method: The test was performed in duplicate.
as §4

Spodoptera litura = experiment: whole plant or invertebrate; assay type: in vivo; details: for Theoretical value by Colby's equation: Spodoptera litura; for Mortality of single agent against Spodoptera litura: cabbage leaf disk spray, three days
Method: After an air drying process, third instar larvae were released thereto. […] The test was performed in duplicate.
as §4

Chilo suppressalis = assay type: in vivo
Method: After standing for 3 days, second instar larvae were released thereto. […] The test was performed in duplicate.
as §4

Naranga aenescens = assay type: in vivo
Method: After standing for 3 days, first instar larvae were released thereto. […] The test was performed in duplicate.
as §4

[6] = Laodelphax striatellus, soil, 72 h, soil irrigation
[7] = Frankliniella occidentalis, foliar, 72 h, read-out: Mortality of single agent against Frankliniella occidentalis
[8] = single agent 5 ppm (other component 0)
[9] = single agent 10 ppm (other component 0)

C[C@H]1O[C@H](O[C@H]2[C@H](O)[C@@H](O)[C@@H](O)[C@H](O)[C@@H]2O)[C@@H](N)C[C@@H]1NC(=N)C(=O)O [Kasugamycin]
Preventive value (Rice blast test, number of lesions) (rice blast): 0

C[Si](C)(C)CC(O)(Cn1cncn1)c1ccc(F)cc1 (stereo not drawn) [Simeconazole]
Preventive value (Sheath blight test, lesion height) (Rhizoctonia solani): 5

Cc1nn(C)c(Cl)c1C(=O)Nc1cccc2c1C(C)OC2(C)C (stereo not drawn) [Furametpyr]
Preventive value (Sheath blight test, lesion height) (Rhizoctonia solani): 77

C[C@@H](NC(=O)C(C#N)C(C)(C)C)c1ccc(Cl)cc1Cl (stereo partly drawn) [Diclocymet]
Preventive value (Rice blast test, number of lesions) (rice blast): 8

CCCCOC(=O)[C@@H](C)Oc1ccc(Oc2ccc(C#N)cc2F)cc1 [Cyhalofop-butyl]
Mortality of larvae (Laodelphax striatellus) (Laodelphax striatellus): 0%

Cc1cccc2sc3nncn3c12 [Tricyclazole]
Preventive value (Rice blast test, number of lesions) (rice blast): 72

CO/C=C(/C(=O)OC)c1ccccc1Oc1cc(Oc2ccccc2C#N)ncn1 [Azoxystrobin]
Preventive value (Rice blast test, number of lesions) (rice blast): 37
Preventive value (Sheath blight test, lesion height) (Rhizoctonia solani): 95

O=[N+]([O-])NC1=NCCN1Cc1ccc(Cl)nc1 [imidacloprid, reference compound]
death rates ([1]; susceptible species, 0.05 mg/seedling, six days after the release): 100%
Insecticidal effects against Nilaparvata lugens (death rate %), Susceptible population ([1]; throughput 0.01 mg/seedling): 100%
Insecticidal effects against Nilaparvata lugens (death rate %), Susceptible population ([1]; throughput 0.05 mg/seedling): 100%
death rates ([2]; resistant population I, 0.05 mg/seedling, six days after the release): 38%
Insecticidal effects against Nilaparvata lugens (death rate %), Resistant population I ([2]; throughput 0.05 mg/seedling, soil drench, six days): 38%
death rates ([3]; resistant population II, 0.05 mg/seedling, six days after the release): 69%
Insecticidal effects against Nilaparvata lugens (death rate %), Resistant population II ([3]; throughput 0.01 mg/seedling): 39%
Insecticidal effects against Nilaparvata lugens (death rate %), Resistant population II ([3]; throughput 0.05 mg/seedling): 69%
mortality at 0.005 mg/seedling (Laodelphax striatella; [6]): 0%
Theoretical value by Colby's equation ([4]; 20 ppm): 69%
mortality at 20 ppm [4, 7]: 69%
Mortality of single agent against Callosobruchus chinensis (Callosobruchus chinensis): 40%
mortality at 0.0019 mg [5]: 7.7%

CN/C(=N/CC1CCOC1)N[N+](=O)[O-] (stereo not drawn) [Dinotefuran]
mortality at 0.005 mg/seedling (Laodelphax striatella; [6]): 0%
Theoretical value by Colby's equation ([4]; 5 ppm): 35%
mortality at 5 ppm [4, 7]: 35%

OCC1=C[C@H](N[C@H]2C[C@H](CO)[C@@H](O[C@@H]3O[C@H](CO)[C@@H](O)[C@H](O)[C@H]3O)[C@H](O)[C@H]2O)[C@H](O)[C@@H](O)[C@@H]1O [Validamycin]
Preventive value (Sheath blight test, lesion height) (Rhizoctonia solani): 32

Cc1ccc(NC(=O)c2snnc2C)cc1Cl [Tiadinil]
mortality at 0.5 mg/seedling (Laodelphax striatella; Laodelphax striatellus, soil, 72 h, read-out: Mortality of single agent against Laodelphax striatella, single agent 0.5 mg/Seedling, soil irrigation): 8%
Preventive value (Rice blast test, number of lesions) (rice blast): 0

N#Cc1ccccc1NC(=O)c1snc(Cl)c1Cl [Isotianil]
Theoretical value by Colby's equation (Laodelphax striatella): 5%
Mortality of single agent against Laodelphax striatella (Laodelphax striatella; soil irrigation): 5%
Preventive value (Rice blast test, number of lesions) (rice blast): 66

CNC(=O)/C(=N/OC)c1ccccc1CO/N=C(C)/C(=N/OC)C(/C)=N/OC [Orysastrobin]
Theoretical value by Colby's equation (Laodelphax striatella): 4%
Mortality of single agent against Laodelphax striatella (Laodelphax striatella; soil irrigation): 4%
Preventive value (Rice blast test, number of lesions) (rice blast): 20
Preventive value (Sheath blight test, lesion height) (Rhizoctonia solani): 72

Cc1nc(C(F)(F)F)c(C(=O)Nc2c(Br)cc(OC(F)(F)F)cc2Br)s1 [Thifluzamide]
Preventive value (Sheath blight test, lesion height) (Rhizoctonia solani): 92

Cc1ccc(NC(=O)NC(C)(C)c2ccccc2)cc1 [Daimuron]
Mortality of larvae (Laodelphax striatellus) (Laodelphax striatellus): 0%

CCN(CC)C(=O)n1cnc(S(=O)(=O)c2c(C)cc(C)cc2C)n1 [Cafenstrole]
Mortality of larvae (Laodelphax striatellus) (Laodelphax striatellus): 0%

CC(=O)Oc1c(C)c(C)nc2c(F)cc(C(C)(C)C)cc12 [Tebufloquin]
Preventive value (Rice blast test, number of lesions) (rice blast): 48

C[C@]1(COC(=O)C2CC2)[C@@H]2C[C@H](O)[C@@]3(C)Oc4cc(-c5cccnc5)oc(=O)c4[C@H](O)[C@@H]3[C@@]2(C)CC[C@@H]1OC(=O)C1CC1 [Afidopyropen]
Theoretical value by Colby's equation (Plutella xylostella; [8]): 0%
Theoretical value by Colby's equation (Plutella xylostella; [9]): 20%
Mortality of single agent against Plutella xylostella (Plutella xylostella; single agent 5 ppm): 0%
Mortality of single agent against Plutella xylostella (Plutella xylostella; single agent 10 ppm): 20%
Theoretical value by Colby's equation (Aphis gossypii; Aphis gossypii, single agent 0.002 ppm (other component 0)): 25%
Mortality of single agent against Aphis gossypii (Aphis gossypii; single agent 0.002 ppm, cucumber leaf disk spray, three days): 25%
Theoretical value by Colby's equation (Spodoptera litura; [8]): 0%
Theoretical value by Colby's equation (Spodoptera litura; [9]): 0%
Mortality of single agent against Spodoptera litura (Spodoptera litura; single agent 5 ppm): 0%
Mortality of single agent against Spodoptera litura (Spodoptera litura; single agent 10 ppm): 0%

Spinosad
Theoretical value by Colby's equation (Laodelphax striatella): 0%
Mortality of single agent against Laodelphax striatella (Laodelphax striatella; soil irrigation): 0%
Theoretical value by Colby's equation (Plutella xylostella; single agent 0.01 ppm (other component 0)): 11%
Mortality of single agent against Plutella xylostella (Plutella xylostella; single agent 0.01 ppm): 11%
Theoretical value by Colby's equation (Chilo suppressalis; Chilo suppressalis, single agent 0.002 mg/seedling (other component 0)): 80%
Mortality of single agent against Chilo suppressalis (Chilo suppressalis; single agent 0.002 mg/seedling, soil irrigation, six days after release): 80%
Theoretical value by Colby's equation (Naranga aenescens; Naranga aenescens, single agent 0.005 mg/seedling (other component 0)): 40%
Mortality of single agent against Naranga aenescens (Naranga aenescens; single agent 0.005 mg/seedling, soil irrigation, five days after release): 40%

O=C(Nc1ccccc1)N(Cc1ccc(Cl)cc1)C1CCCC1 [Pencycuron]
Preventive value (Sheath blight test, lesion height) (Rhizoctonia solani): 69
